Source: patent publication US11878015B2, “Piperidine-substituted Mnk inhibitors and methods related thereto” (eFFECTOR Therapeutics Inc., priority 2017, dated 2024)
Where two headings read alike, the source gives them in different places.

Tests used:
Phosphorylated eIF4E = experiment: peIF4E signaling cellular assay (CisBio peIF4E HTRF); type: cell-based; conditions: 2 hrs incubation at 37° C., 12-point curve 20 μM to 0.1 nM; read-out: pEI4IE signaling activity
Protocol: Phosphorylated eIF4E is assayed using the CisBio peIF4E HTRF® assay kit (CisBio, catalogue No. 64EF4PEG). Cells are plated in 96-well tissue-culture treated plate in appropriate growth medium (90 μL). Compounds (10×) are diluted using 3-fold serial dilutions in cell culture medium and added to cells. Plates are incubated for 2 hrs at 37° C. The cell supernatant is carefully removed either by aspirating supernatant or by flicking the plate. Immediately 50 μL of supplemented lysis buffer (1×) is added and incubated for at least 30 minutes at room temperature under shaking. After homogenization by pipeting up and down, 16 μL of cell lysate is transferred from the 96-well cell-culture plate to a 384-well small volume white plate. 4 μL of premixed antibody solutions (vol/vol) is prepared in the detection buffer and added. The plate is covered with a plate sealer and incubated overnight at room temperature. The fluorescence emissions at two different wavelengths are read (665 nm and 620 nm) on a Wallac Victor2. Emission ratios are converted into percent inhibitions and imported into GraphPad Prism software. […] IC50 values are determined using a nonlinear regression model available in GraphPad Prism 5.
To this end, IC50 values of less than 0.001 μM are labelled as “+++”, from 0.001 to 0.01 μM are labelled as “++”, and greater than 0.01 μM are labelled as “+” (NA means “not available”).

[1] = High throughput thermodynamic solubility procedure; type: physicochemical; conditions: for solubility in fasted state simulated gastric fluid (FaSSGF), in words: pH value of 1.6; for solubility at 18 h: thermodynamic from solid, 18 hours incubation, theoretical maximum 10 mM
Protocol: In a 96-well plate, 10 mM DMSO stocks (50-100 uL) of each compound were dried under heated nitrogen flow using a SPE-96 plate dryer (upper flow rate=50 L/min, temperature=60° C., lower flow rate=20 L/min, temperature=80° C.). […] Compounds prepared as the free base were assessed in conditions with and without one equivalent of TFA added. The theoretical maximum concentrations of the aqueous solutions were 10 mM. Each well was capped and incubated for a period of 18 hours at room temperature or 37° C. Mixing of the solutions during the incubation period was performed by either shaking the plate at 750 rpm or adding StirStix (stainless steel capillaries) and agitating the mixture using a rotary magnetic tumble stirrer. After the incubation period, aliquots from each well were filtered. Solubility of all samples were quantified following comparison to standards of known concentration by HPLC-UV.

PD-1 = PD-1 (CD279) expression on PHA/PMA-activated Jurkat T cells, flow cytometry; type: cell-based; conditions: Homo sapiens, percentage of inhibition of PD-1 positive cells at 10 μM, 48 hours
Protocol: To examine the effect of MNK inhibitors on PD-1 expression, Jurkat cells (Clone E6.1, ATCC, transformed T cells) were used, which express PD-1 when activated through T cell receptor (TCR) signaling. Briefly, Jurkat cells were grown in 1×RPMI with 1×Pen/Strep, and 10% FBS, then about 3×10^6 Jurkat cells were activated in presence of 1 μg/mL PHA (Sigma) and 50 ng/mL PMA (Sigma). Test Cells were treated simultaneously with various concentrations of an MNK inhibitor (0, 0.01, 0.1, 1, 3 and 10 μM). After 48 hours, culture supernatants were harvested and examined via sandwich ELISA for the presence of IL-2 using human IL-2 ELISA DuoSet (R&D Systems, Minneapolis, Minn.). The level of PD-1 on Jurkat cells was examined by incubating with human FcR block, then contacted with allophycocyanin (APC) conjugated anti-PD-1 antibody (5 μl per 100 μl volume of test, Biolegend, San Diego, CA) for 25 minutes at 4° C., without washing the cells, fixable dead cell stain (1:10,000; BD Biosciences, San Jose, CA) was added and incubated further for 10 minutes at 4° C. Cells were washed two times with flow buffer, and finally cells were fixed with fixation buffer for 15 minutes at 4° C. After fixation, cells were washed twice with flow buffer and re-suspended in flow buffer and assessed for fluorescence using BD Accuri C6 flow cytometer. Data were analyzed using the C6 cytometer software (BD Biosciences, San Jose, CA) or Attune Nxt Cytometer (Invitrogen, Carlsbad, CA).
Activation of Jurkat T cells with PHA and PMA induced the expression of PD-1 on the cell surface of about 25-30% of the stimulated Jurkat cells as compared to uninduced cells (Unstim) and induced a 1,000-fold increase in IL-2 cytokine production, respectively. […] Lastly, MNK inhibition by various different MNK inhibitors had no effect on cell viability. […] To this end, percentage of inhibition of PD-1 positive cells (10 μM) of more than 50% are labelled as “+++”, from 10% to 50% are labelled as “++”, and less than 10% are labelled as “+” (NA means “not available”).

[2] = Fasted-State Simulated Intestinal Fluid (FaSSIF), pH 6.5, fassif, Fasted-State Simulated Intestinal Fluid, read-out: Aqueous Solubility FaSSIF (pH 6.5)
[3] = deionized water, read-out: Aqueous Solubility DI H2O

Cc1cc(Nc2ncnc(N)c2C#N)c(=O)n2c1C(=O)N[C@]21CCCN(C)C1 (single isomer, unassigned) [Compound 2Fa]
IC50 (Phosphorylated eIF4E): 1 to 10 nM
solubility in fasted state simulated gastric fluid (FaSSGF), in words [1]: excellent solubility
solubility at 18 h [1, 2]: 77 µg/mL
solubility at 18 h [1, 3]: 1840 µg/mL
inhibition at 10 µM (PD-1): 10 to 50%

Cc1cc(Nc2ncnc(N)c2Cl)c(=O)n2c1C(=O)N[C@]21CCCNC1 [Compound 3K]
IC50 (Phosphorylated eIF4E): > 10 nM
solubility in fasted state simulated gastric fluid (FaSSGF), in words [1]: excellent solubility
solubility at 18 h [1, 2]: 158 µg/mL
solubility at 18 h [1, 3]: 1530 µg/mL
inhibition at 10 µM (PD-1): > 50%

Cc1cc(Nc2ncnc(N)c2Cl)c(=O)n2c1C(=O)NC21CNCCC1(C)C (stereo not shown) [Compound 3S]
IC50 (Phosphorylated eIF4E): 1 to 10 nM
solubility at 18 h [1, 2]: 600 µM
solubility at 18 h [1, 3]: 4200 µM
inhibition at 10 µM (PD-1): > 50%

Cc1cc(Nc2ncnc(N)c2C)c(=O)n2c1C(=O)N[C@]21CCCN(C)C1 (stereo in doubt) [Compound 1Fa, (R)-6-((6-amino-5-methylpyrimidin-4-yl)amino)-1′,8-dimethyl-2H-spiro[imidazo[1,5-a]pyridine-3,3′-piperidine]-1,5-dione]
IC50 (Phosphorylated eIF4E): > 10 nM
solubility in fasted state simulated gastric fluid (FaSSGF), in words [1]: excellent solubility
solubility at 18 h [1, 2]: 125 µg/mL
solubility at 18 h [1, 3]: > 1850 µg/mL
inhibition at 10 µM (PD-1): 10 to 50%
